Experimental data: patent US9415055B2, “Cyclic amines” (H. Lundbeck A/S, priority 2012, dated 2016)

What follows are compounds tested against P2X7 receptor (Homo sapiens (Human), UniProt Q99572) (assay: P2X7 FLIPR assay: antagonism of BzATP response in 293 HEK cells stably expressing P2X7 receptor). Conditions: FLIPR fluorescence (Fluo-4), agonist BzATP, 293 HEK cells stably transfected with P2X7 receptor.
Chain of P2X7 receptor (Q99572 whole entry): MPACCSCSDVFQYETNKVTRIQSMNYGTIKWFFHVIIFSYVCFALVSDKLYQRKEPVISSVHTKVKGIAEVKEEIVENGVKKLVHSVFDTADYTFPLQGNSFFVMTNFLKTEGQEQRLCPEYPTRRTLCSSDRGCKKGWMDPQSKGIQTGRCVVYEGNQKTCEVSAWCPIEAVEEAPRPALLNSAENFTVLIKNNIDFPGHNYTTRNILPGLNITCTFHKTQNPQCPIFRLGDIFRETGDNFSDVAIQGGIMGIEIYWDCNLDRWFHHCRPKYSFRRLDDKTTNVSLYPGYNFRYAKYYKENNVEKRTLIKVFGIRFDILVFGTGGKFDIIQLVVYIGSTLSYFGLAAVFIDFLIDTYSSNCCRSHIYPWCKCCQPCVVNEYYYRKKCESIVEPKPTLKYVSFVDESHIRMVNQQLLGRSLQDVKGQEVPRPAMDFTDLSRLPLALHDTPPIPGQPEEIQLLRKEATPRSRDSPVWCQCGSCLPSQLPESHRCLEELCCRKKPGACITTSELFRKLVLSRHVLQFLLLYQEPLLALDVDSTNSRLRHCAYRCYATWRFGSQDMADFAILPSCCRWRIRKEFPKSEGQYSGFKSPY
Format: cell-based
Method in brief: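 Antagonist IC50 derived from FLIPR Tetra Fluo-4 calcium signal evoked by BzATP. Compound pre-incubation was 30 min at room temperature on P2X7-expressing HEK293 cells, seeded 24 h before in low-serum medium and dye-loaded 30 min at 37 °C then 30 min at RT.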
For `O=C(NCC(c1cnc(C(F)(F)F)nc1)N1CCC(F)(F)CC1)c1c(Cl)cc(F)cc1Cl` (single isomer, unassigned; (-)) [(−)2,6-dichloro-N-[2-(4,4-difluoro-1-piperidyl)-2-[2-(triflu] [(−)2,6-dichloro-4-fluoro-N-(2-(4,4-difluoropiperidin-1-yl)-2-(2-(trifluoromethyl)pyrimidin-5-yl)ethyl)benzamide], the IC50 was 15 nM.
Compound `Cc1ncc(C(CNC(=O)c2cccc(Cl)c2Cl)N2CCCC(C)C2)cn1` (stereo not drawn) [2,3-dichloro-N-(2-(3-methylpiperidin-1-yl)-2-(2-methylpyrimidin-5-yl)ethyl)benzamide] has an IC50 of 170 nM.
In the case of `Cc1ncc(C(CNC(=O)c2cccc(F)c2Cl)N2CCC(F)(F)CC2)cn1` (single isomer, unassigned; (+)) [(+)2-chloro-N-[2-(4,4-difluoro-1-piperidyl)-2-(2-methylpyrim] [(+)2-chloro-3-fluoro-N-(2-(4,4-difluoropiperidin-1-yl)-2-(2-methylpyrimidin-5-yl)ethyl)benzamide], the IC50 is reported as 15 nM.
For `O=C(NCC(c1cnc(C(F)(F)F)nc1)N1CCOCC1)c1ccc(Cl)cc1Cl` (stereo not drawn) [2,4-dichloro-N-(2-morpholino-2-(2-(trifluoromethyl)pyrimidin-5-yl)ethyl)benzamide], the IC50 was 12 nM.
In the case of `Cc1ncc(C(CNC(=O)c2c(Cl)cccc2Cl)N2CCC(F)(F)CC2)cn1` (single isomer, unassigned; (+)) [(+)2,6-dichloro-N-[2-(4,4-difluoro-1-piperidyl)-2-(2-methylp] [(+)2,6-dichloro-N-(2-(4,4-difluoropiperidin-1-yl)-2-(2-methylpyrimidin-5-yl)ethyl)benzamide], the IC50 is reported as 19 nM.
In the case of `O=C(NCC(c1cnc(C(F)(F)F)nc1)N1CCC(F)(F)CC1)c1c(F)cc(F)cc1Cl` (single isomer, unassigned; (+)) [(+)2-chloro-N-[2-(4,4-difluoro-1-piperidyl)-2-[2-(trifluorom] [(+)2-chloro-4,6-difluoro-N-(2-(4,4-difluoropiperidin-1-yl)-2-(2-(trifluoromethyl)pyrimidin-5-yl)ethyl)benzamide], the IC50 is reported as 9.4 nM.
`COc1cccc(C(=O)NCC(c2ccc(Cl)cc2)N2CCOCC2)c1Cl` (single isomer, unassigned; (+)) [(+)2-chloro-N-[2-(4-chlorophenyl)-2-morpholino-ethyl]-3-meth] [(+)2-chloro-N-(2-(4-chlorophenyl)-2-morpholinoethyl)-3-methoxybenzamide] showed an IC50 of 4.2 nM.
With `CS(=O)(=O)c1ccc(Cl)c(C(=O)NCC(c2ccc(C(F)(F)F)nc2)N2CCOCC2)c1` (single isomer, unassigned; (+)) [(+)2-chloro-5-methylsulfonyl-N-[2-morpholino-2-[6-(trifluoro] [(+)2-chloro-5-(methylsulfonyl)-N-(2-morpholino-2-(6-(trifluoromethyl)pyridin-3-yl)ethyl)benzamide] the IC50 was 71 nM.
`Cc1ncc(C(CNC(=O)c2ccc(Cl)cc2Cl)N2CCC(F)(F)CC2)cn1` (stereo not drawn) [2,4-dichloro-N-(2-(4,4-difluoropiperidin-1-yl)-2-(2-methylpyrimidin-5-yl)ethyl)benzamide] showed an IC50 of 44 nM.
`COc1cccc(C(=O)NCC(c2cnc(C)nc2)N2CCC(F)(F)CC2)c1Cl` (single isomer, unassigned; (-)) [(−)2-chloro-N-[2-(4,4-difluoro-1-piperidyl)-2-(2-methylpyrim] [(−)2-chloro-3-methoxy-N-(2-(4,4-difluoropiperidin-1-yl)-2-(2-methylpyrimidin-5-yl)ethyl)benzamide] was tested, and the IC50 was 11 nM.
`Cc1cccc(C(=O)NCC(c2ccc(F)cc2)N2CCOCC2)c1C` (stereo not drawn) [N-[2-(4-Fluoro-phenyl)-2-morpholin-4-yl-ethyl]-2,3-dimethyl-benzamide] gave an IC50 of 20 nM.
Work on `COc1ccc(C(CNC(=O)c2ccccc2C)N2CCOCC2)cc1` (stereo not drawn) [N-[2-(4-Methoxy-phenyl)-2-morpholin-4-yl-ethyl]-2-methyl-benzamide] yielded an IC50 of 500 nM.
In the case of `O=C(NCC(c1cncnc1)N1CCOCC1)c1cccc(Cl)c1Cl` (stereo not drawn) [2,3-Dichloro-N-(2-morpholino-2-pyrimidin-5-yl-ethyl)benzamide], the IC50 is reported as 28 nM.
In the case of `CCc1ncc(C(CNC(=O)c2ccccc2Cl)N2CCC(F)(F)CC2)cn1` (single isomer, unassigned; (+)) [(+)2-chloro-N-[2-(4,4-difluoro-1-piperidyl)-2-(2-ethylpyrimi] [(+)2-chloro-N-(2-(4,4-difluoropiperidin-1-yl)-2-(2-ethylpyrimidin-5-yl)ethyl)benzamide], the IC50 is reported as 12 nM.
`Cc1ncc(C(CNC(=O)c2ccccc2Cl)N2CCCCC2)cn1` (single isomer, unassigned; (-)) [(−)2-chloro-N-[2-(2-methylpyrimidin-5-yl)-2-(1-piperidyl)eth] [(−)2-chloro-N-(2-(2-methylpyrimidin-5-yl)-2-(piperidin-1-yl)ethyl)benzamide] gave an IC50 of 120 nM.
With `N#Cc1ccc(Cl)c(C(=O)NCC(c2ccc(Cl)cc2)N2CCOCC2)c1` (single isomer, unassigned; (+)) [(+)2-chloro-N-[2-(4-chlorophenyl)-2-morpholino-ethyl]-5-cyan] [(+)2-chloro-N-(2-(4-chlorophenyl)-2-morpholinoethyl)-5-cyanobenzamide] the IC50 was 23 nM.
`N#Cc1ccc(Cl)c(C(=O)NCC(c2ccc(Cl)cc2)N2CCOCC2)c1` (single isomer, unassigned; (-)) [(−)2-chloro-N-[2-(4-chlorophenyl)-2-morpholino-ethyl]-5-cyan] [(−)2-chloro-N-(2-(4-chlorophenyl)-2-morpholinoethyl)-5-cyanobenzamide] gave an IC50 of 110 nM.
With `Cc1ncc(C(CNC(=O)c2ccccc2Cl)N2CCOCC2)cn1` (single isomer, unassigned; (+)) [(+)2-chloro-N-[2-(2-methylpyrimidin-5-yl)-2-morpholino-ethyl] [(+)2-chloro-N-(2-(2-methylpyrimidin-5-yl)-2-morpholinoethyl)benzamide] the IC50 was 630 nM.
`O=C(NCC(c1cnc(C(F)(F)F)nc1)N1CCC(F)CC1)c1ccccc1Cl` (single isomer, unassigned; (-)) [(−)2-chloro-N-[2-(4-fluoro-1-piperidyl)-2-[2-(trifluoromethy] [(−)2-chloro-N-(2-(4-fluoropiperidin-1-yl)-2-(2-(trifluoromethyl)pyrimidin-5-yl)ethyl)benzamide] was tested, and the IC50 was 13 nM.
`O=C(NCC(c1cnc(C(F)(F)F)nc1)N1CCC(F)(F)CC1)c1c(F)cc(Cl)cc1Cl` (single isomer, unassigned; (+)) [(+)2,4-dichloro-N-[2-(4,4-difluoro-1-piperidyl)-2-[2-(triflu] [(+)2,4-dichloro-6-fluoro-N-(2-(4,4-difluoropiperidin-1-yl)-2-(2-(trifluoromethyl)pyrimidin-5-yl)ethyl)benzamide] was tested, and the IC50 was 4.7 nM.
`Cc1ncc(C(CNC(=O)c2cccc(Cl)c2Cl)N2CCCCC2C(C)C)cn1` (stereo not drawn) [2,3-dichloro-N-(2-(2-isopropylpiperidin-1-yl)-2-(2-methylpyrimidin-5-yl)ethyl)benzamide] gave an IC50 of 1900 nM.
In the case of `COc1ccc(C(CNC(=O)c2cccc(Cl)c2Cl)N2CCOCC2)cc1` (stereo not drawn) [2,3-Dichloro-N-[2-(4-methoxy-phenyl)-2-morpholin-4-yl-ethyl]-benzamide], the IC50 is reported as 13 nM.
With `O=C(NCC(c1cnc(C(F)(F)F)nc1)N1CCC(F)CC1)c1ccccc1Cl` (single isomer, unassigned; (+)) [(+)2-chloro-N-[2-(4-fluoro-1-piperidyl)-2-[2-(trifluoromethy] [(+)2-chloro-N-(2-(4-fluoropiperidin-1-yl)-2-(2-(trifluoromethyl)pyrimidin-5-yl)ethyl)benzamide] the IC50 was 15 nM.
In the case of `Cc1ncc(C(CNC(=O)c2cccc(OC(F)(F)F)c2Cl)N2CCC(F)(F)CC2)cn1` (single isomer, unassigned; (+)) [(+)2-chloro-N-[2-(4,4-difluoro-1-piperidyl)-2-(2-methylpyrim] [(+)2-chloro-N-(2-(4,4-difluoropiperidin-1-yl)-2-(2-methylpyrimidin-5-yl)ethyl)-3-(trifluoromethoxy)benzamide], the IC50 is reported as 21 nM.
`Cc1ncc(C(CNC(=O)c2cccc(OC(F)F)c2Cl)N2CCC(F)(F)CC2)cn1` (single isomer, unassigned; (+)) [(+)2-chloro-3-(difluoromethoxy)-N-[2-(4,4-difluoro-1-piperid] [(+)2-chloro-3-(difluoromethoxy)-N-(2-(4,4-difluoropiperidin-1-yl)-2-(2-methylpyrimidin-5-yl)ethyl)benzamide] was tested, and the IC50 was 7 nM.
`Cc1ccccc1C(=O)NCC(c1ccc(F)cc1)N1CCOCC1` (stereo not drawn) [N-[2-(4-Fluoro-phenyl)-2-morpholin-4-yl-ethyl]-2-methyl-benzamide] was tested, and the IC50 was 110 nM.
`O=C(NCC(c1cnc(C(F)(F)F)nc1)N1CCC(F)(F)CC1)c1cccc(F)c1Cl` (single isomer, unassigned; (+)) [(+)2-chloro-N-[2-(4,4-difluoro-1-piperidyl)-2-[2-(trifluorom] [(+)2-chloro-N-(2-(4,4-difluoropiperidin-1-yl)-2-(2-(trifluoromethyl)pyrimidin-5-yl)ethyl)-3-fluorobenzamide] showed an IC50 of 1.7 nM.
For `CCc1ncc(C(CNC(=O)c2cccc(Cl)c2Cl)N2CCC(F)(F)CC2)cn1` (single isomer, unassigned; (+)) [(+)2,3-dichloro-N-[2-(4,4-difluoro-1-piperidyl)-2-(2-ethylpy] [(+2,3-dichloro-N-(2-(4,4-difluoropiperidin-1-yl)-2-(2-ethylpyrimidin-5-yl)ethyl)benzamide], the IC50 was 2.6 nM.
In the case of `Cn1cc(C(CNC(=O)c2cc(F)cc(Cl)c2Cl)N2CCC(F)(F)CC2)cn1` (single isomer, unassigned; (+)) [(+)2,3-dichloro-N-[2-(4,4-difluoro-1-piperidyl)-2-(1-methylp] [(+)2,3-dichloro-5-fluoro-N-(2-(4,4-difluoropiperidin-1-yl)-2-(1-methyl-1H-pyrazol-4-yl)ethyl)benzamide], the IC50 is reported as 34 nM.
In the case of `O=C(NCC(c1cnc(C2CC2)nc1)N1CCC(F)(F)CC1)c1c(Cl)cccc1Cl` (single isomer, unassigned; (+)) [(+)2,6-dichloro-N-(2-(2-cyclopropylpyrimidin-5-yl)-2-(4,4-difluoropiperidin-1-yl)ethyl)benzamide], the IC50 is reported as 5.3 nM.
